Measured values taken from article PMC6409032, “Antileishmanial Evaluation of the Leaf Latex of Aloe macrocarpa, Aloin A/B, and Its Semisynthetic Derivatives against Two Leishmania Species” (Evidence-based Complementary and Alternative Medicine : eCAM, 2019).
Read-outs that look alike come from different tables or passages of the source.

How the values were obtained:
[1] = Acute toxicity study (OECD limit test); settings: mouse, in vivo; Swiss albino mice, limit test dose 2000 mg/kg, OECD guideline
Description: Acute toxicity study was carried out as described earlier using the limit test dose of 2000 mg/kg according to OECD guideline for testing of chemicals on Swiss albino mice.

[2] = test system: Leishmania donovani promastigotes; assay: In vitro antipromastigote assay (resazurin fluorescence); type: cell-based; settings: L. donovani promastigotes, 72 h
Description: (§1) In vitro antileishmanial activity tests were carried out against the promastigote stage and axenically cultured amastigotes of L. aethiopica and L. donovani. The two isolates were grown in tissue culture flasks containing RPMI 1640 medium supplemented with 10% heat-inactivated fetal calf serum, 100 IU penicillin/mL, and 100 μg/mL streptomycin solution at 22°C for L. aethiopica and 24°C for L. donovani. Axenically cultured amastigotes were obtained from the late stationary phase promastigotes (3 × 10^6 cells/ml). The cells were centrifuged and then resuspended in medium 199 with Hank's salts supplemented with 20% FBS, 2 mM L-glutamine, 50 IU/mL penicillin, and 50 μg/mL streptomycin. The pH was adjusted to 5.5 using 1 N HCl. Following incubation of cells at 31°C for L. aethiopica and 37°C for L. donovani at 5% CO2, amastigote-like rounded morphology together with loss of flagella and cell clumping started appearing within 24 h. The parasites were kept for a week as some motile parasites with intermediate forms and short flagella were detected. The human monocytic leukemia cell line THP-1 cells were incubated in RPMI 1640 medium plus 10% hi-FCS and 20 ng/mL phorbol 12-myristate 13-acetate (PMA; Sigma) at 37°C and 5% CO2 for 72 h. A cell-free medium was used to grow parasites in vitro and to set up the test system for determination of the IC50 values of the test substances.
(§2) To a separate 96-well microtiter plate containing 100 μL of complete culture medium, each of the test substances was added to triplicate wells to achieve a final concentration of 100 μg/mL. Each one hundred microliter suspension of the parasites (3.5 × 10^6 promastigotes or axenically cultured amastigotes /mL of L. aethiopica or L. donovani) obtained from the previous culture was then added to each well, and contents of each plates were maintained for 72 h, at room temperature for promastigotes stages of both strains, at 31°C and 37°C for axenically cultured amastigotes of L. aethiopica and L. donovani, respectively. After 68 h of incubation, 20 μL (10% of the total volume of each well) resazurin (0.125 mg/mL) was added, covered with aluminum foil, and left at temperature mentioned above. Antileishmanial effect of the test substances was studied on the basis of fluorescence characteristic of resazurin added to drug-treated cultures.
(§3) Antipromastigote effect was evaluated against clinical isolates of L. aethiopica and L. donovani strains, as per the method described by Abeje et al..
(§4) Antileishmanial activity (IC50) was expressed as mean ± SD of triplicate measurements. IC50 values were evaluated from sigmoidal dose-response curves of percent inhibition using the computer software GraphPad Prism 8 (GraphPad Software, Inc., CA, USA), and values expressed as mean ± SD of triplicate experiments.

[3] = test system: Leishmania aethiopica promastigotes; assay: as above; type: cell-based
Description: as §1, §2, §3, §4

[4] = Cytotoxicity study in THP-1 monocytes (Alamar Blue); type: cell-based; settings: human
Description: In vitro antileishmanial activity tests were carried out against the promastigote stage and axenically cultured amastigotes of L. aethiopica and L. donovani. […] Axenically cultured amastigotes were obtained from the late stationary phase promastigotes (3 × 10^6 cells/ml). […] The pH was adjusted to 5.5 using 1 N HCl. Following incubation of cells at 31°C for L. aethiopica and 37°C for L. donovani at 5% CO2, amastigote-like rounded morphology together with loss of flagella and cell clumping started appearing within 24 h. The parasites were kept for a week as some motile parasites with intermediate forms and short flagella were detected. […] A cell-free medium was used to grow parasites in vitro and to set up the test system for determination of the IC50 values of the test substances.
THP-1 monocytes were plated onto 96-well plates at a density of 4 × 10^4 cells per well (in 200 μL volume) in the presence or absence of test substances and plates incubated at 37°C, 5% CO2 for 72 h. After adding Alamar Blue™ during the last 3 h of incubation, cell viability was measured fluorometrically as described above.

[5] = test system: axenically cultured amastigotes of Leishmania aethiopica; assay: In vitro assay on axenically cultured amastigotes (resazurin fluorescence); type: cell-based; settings: for Selectivity index: LC50 on THP-1 cells / IC50 on L. aethiopica amastigotes; for IC50: Leishmania aethiopica, L. aethiopica axenic amastigotes, 72 h
Description: as §1, with “The human monocytic leukemia cell line THP-1 cells were incubated in RPMI 1640 medium plus 10% hi-FCS and 20 ng/mL phorbol 12-myristate 13-acetate (PMA; Sigma) at 37°C and 5% CO2 for 72 h.” left out, “substances. […] Each one hundred microliter suspension of the parasites (3.5 × 10^6 promastigotes or axenically cultured amastigotes /mL of L. aethiopica or L. donovani) obtained from the previous culture was then added to each well, and contents of each plates were maintained for 72 h, at room temperature for promastigotes stages of both strains, at 31°C and 37°C for axenically cultured amastigotes of L. aethiopica and L. donovani, respectively. After 68 h of incubation, 20 μL (10% of the total volume of each well) resazurin (0.125 mg/mL) was added, covered with aluminum foil, and left at temperature mentioned above. […] Antileishmanial activity (IC50) was expressed as mean ± SD of triplicate measurements. IC50 values were evaluated from sigmoidal dose-response curves of percent inhibition using the computer software GraphPad Prism 8 (GraphPad Software, Inc., CA, USA), and values expressed as mean ± SD of triplicate experiments.” for “substances.”

[6] = test system: axenically cultured amastigotes of Leishmania donovani; assay: as above; type: cell-based; settings: for Selectivity index: LC50 on THP-1 cells / IC50 on L. donovani amastigotes; for IC50: Leishmania donovani, L. donovani axenic amastigotes, 72 h
Description: as §1, with “The human monocytic leukemia cell line THP-1 cells were incubated in RPMI 1640 medium plus 10% hi-FCS and 20 ng/mL phorbol 12-myristate 13-acetate (PMA; Sigma) at 37°C and 5% CO2 for 72 h.” left out, “substances. […] Each one hundred microliter suspension of the parasites (3.5 × 10^6 promastigotes or axenically cultured amastigotes /mL of L. aethiopica or L. donovani) obtained from the previous culture was then added to each well, and contents of each plates were maintained for 72 h, at room temperature for promastigotes stages of both strains, at 31°C and 37°C for axenically cultured amastigotes of L. aethiopica and L. donovani, respectively. After 68 h of incubation, 20 μL (10% of the total volume of each well) resazurin (0.125 mg/mL) was added, covered with aluminum foil, and left at temperature mentioned above. […] Antileishmanial activity (IC50) was expressed as mean ± SD of triplicate measurements. IC50 values were evaluated from sigmoidal dose-response curves of percent inhibition using the computer software GraphPad Prism 8 (GraphPad Software, Inc., CA, USA), and values expressed as mean ± SD of triplicate experiments.” for “substances.”

L. major amastigotes = test system: L. major amastigotes; parameters: method as in PMID 26151018; settings: in vitro; cited from earlier work
[7] = mean ± SD, n = 3, read-out: Antipromastigote activity IC50
[8] = read-out: Antipromastigote activity IC50 (micromolar, in parenthesis) (converted)
[9] = L. aethiopica promastigotes, 72 h, mean ± SD, n = 3, read-out: Antipromastigote activity IC50
[10] = L. aethiopica promastigotes, 72 h, read-out: Antipromastigote activity IC50 (micromolar, in parenthesis) (converted)
[11] = mean ± SD, n = 3, read-out: Cytotoxic effect in THP-1 LC50
[12] = read-out: Cytotoxic effect in THP-1 LC50 (micromolar, in parenthesis) (converted)
[13] = 31°C, mean ± SD, n = 3, read-out: Antiaxenically cultured amastigotes activity IC50
[14] = read-out: Antiaxenically cultured amastigotes activity IC50 (micromolar, in parenthesis) (converted)
[15] = 37°C, mean ± SD, n = 3, read-out: Antiaxenically cultured amastigotes activity IC50

| IC50 ([3]; promastigotes and axenic amastigotes of L. aethiopica and L. donovani, read-out: IC50 (range over both stages and both species)) [µM] | Compound | LD50 [1] [mg/kg] | IC50 [2, 7] [µg/mL] | IC50 [2, 8] [µM] | IC50 [3, 9] [µg/mL] | IC50 [3, 10] [µM] | CC50 at 72 h [4, 11] [µg/mL] | CC50 at 72 h [4, 12] [µM] | Selectivity index [5] | IC50 [5, 13] [µg/mL] | IC50 [5, 14] [µM] | Selectivity index [6] | IC50 [6, 15] [µg/mL] | IC50 [6, 14] [µM] | inhibitory concentrations against L. major amastigotes (L. major amastigotes) [µg/mL] |
| --- | --- | --- | --- | --- | --- | --- | --- | --- | --- | --- | --- | --- | --- | --- | --- |
| – | O=C1c2cccc(O)c2C(=O)c2c(O)cc(CO)cc21 [Aloe-emodin, aloe-emodin] | > 2000 | 2.85 ± 0.5 | 10.6 | 2.81 ± 0.43 | 10.4 | 145.4 ± 0.27 | 539 | 65.22 | 2.23 ± 0.33 | 8.3 | 52.89 | 2.75 ± 0.03 | 10.2 | 40 |
| – | O=C1c2c(O)cccc2C(C2OC(CO)C(O)C(O)C2O)c2cc(CO)cc(O)c21 (centres unmarked) [Aloin A/B, aloin A/B] | > 2000 | 5.06 ± 0.22 | 12.1 | 3.94 ± 0.33 | 9.4 | 154.3 ± 0.22 | 369 | 55.11 | 2.8 ± 1.02 | 6.7 | 52.84 | 2.92 ± 0.15 | 7 | – |
| 1.3 to 2.7 | C[C@@H]1[C@H](O)[C@@H](C)/C=C/C=C/C=C/C=C/C=C/C=C/C=C/[C@H](O[C@@H]2O[C@H](C)[C@@H](O)[C@H](N)[C@@H]2O)C[C@@H]2O[C@](O)(C[C@@H](O)C[C@@H](O)[C@H](O)CC[C@@H](O)C[C@@H](O)CC(=O)O[C@H]1C)C[C@H](O)[C@H]2C(=O)O [Amphotericin B, amphotericin B, reference compound] | – | 2.45 ± 0.21 | 2.7 | 2.43 ± 0.22 | 2.6 | 10.2 ± 0.32 | 11.1 | 8.31 | 1.23 ± 0.41 | 1.3 | 6.60 | 1.55 ± 0.51 | 1.7 | – |
| – | O=C(O)c1cc(O)c2c(c1)C(=O)c1cccc(O)c1C2=O [Rhein, rhein] | > 2000 | 2.07 ± 0.11 | 7.3 | 1.91 ± 0.61 | 6.7 | 173.7 ± 0.11 | 612 | 171.98 | 1.01 ± 0.22 | 3.6 | 148.46 | 1.17 ± 0.42 | 4.1 | – |
